In US7169568B2, “Method for screening molecules that exert a neurotrophic effect through activation of neurotrophin receptors” (New York University, priority 2000, dated 2007):
“Also recorded” adds a separate entry of the source.

Legend:
TrkA [1] = target: T1, TrkA (Homo sapiens, UniProt P04629); assay: 125I-NGF equilibrium binding, HEK 293 cells expressing TrkA; design: expressed in transfected cells; host or cells: HEK 293 cells; details: for Specific Binding of 125I-NGF: 293/TrkA, 1 μM, 30 minutes at 25° C., control 39076 +/− 2885; for Displacement of 125I-NGF binding: 293 cells that expressed TrkA, excess concentrations
Description: (§1) ^125I-NGF Binding Analysis. For equilibrium binding studies, ^125I-NGF was prepared as described previously (Hempstead et al, 1989). PC12 cells stably overexpressing TrkA (2×10^5 cells) and HEK 293 cells expressing TrkA (2×10^5) were incubated with ^125I-NGF in the absence and presence of adenosine compounds for 30 minutes at 25° C. The cells were then washed twice with PBS, and ^125I-NGF stripped with an acid solution (0.2 M acetic acid, 0.5 M NaCl). Nonspecific binding was assessed by adding unlabeled NGF at a final concentration of 1000 ng/ml and represented less than 20% of total binding. Specific binding was defined as total binding minus nonspecific binding. All conditions were carried out in triplicate and SEM calculated.
Target sequence in this assay (P04629 33-796, species assumed): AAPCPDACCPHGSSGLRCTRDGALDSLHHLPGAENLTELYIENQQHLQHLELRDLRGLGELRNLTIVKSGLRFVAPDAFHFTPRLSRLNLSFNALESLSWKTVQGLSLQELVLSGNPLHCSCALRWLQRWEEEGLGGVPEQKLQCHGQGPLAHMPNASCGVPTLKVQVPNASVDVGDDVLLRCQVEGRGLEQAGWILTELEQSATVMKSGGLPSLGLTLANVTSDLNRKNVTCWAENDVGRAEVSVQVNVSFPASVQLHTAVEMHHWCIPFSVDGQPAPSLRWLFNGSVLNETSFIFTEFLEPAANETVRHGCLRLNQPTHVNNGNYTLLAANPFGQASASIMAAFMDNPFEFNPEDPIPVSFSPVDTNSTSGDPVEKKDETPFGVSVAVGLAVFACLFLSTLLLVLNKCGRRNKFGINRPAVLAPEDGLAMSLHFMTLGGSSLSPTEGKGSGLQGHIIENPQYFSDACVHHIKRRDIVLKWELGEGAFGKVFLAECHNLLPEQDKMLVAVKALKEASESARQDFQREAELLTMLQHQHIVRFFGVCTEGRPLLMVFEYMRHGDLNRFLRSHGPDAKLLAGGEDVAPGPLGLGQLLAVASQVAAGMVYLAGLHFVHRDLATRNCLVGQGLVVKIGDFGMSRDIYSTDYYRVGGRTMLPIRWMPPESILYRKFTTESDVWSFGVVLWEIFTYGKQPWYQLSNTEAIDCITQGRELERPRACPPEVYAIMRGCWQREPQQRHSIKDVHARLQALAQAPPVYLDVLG

Akt = Akt activation in PC12 cells (anti-phospho Akt immunoblot); type: cell-based; details: PC12 cells; adenosine 10 μM; CGS 21680 data not shown
Description: PC12 cells (615) were treated with adenosine (10 μM) for various times in the presence or absence of […] (100 nM) or LY294002 (10 μM). The cells were subsequently harvested in lysis buffer; lysates and immunoprecipitated samples were subsequently immunoblotted with anti-phospho MAP kinase, anti-phospho Akt, and anti-phosphotyrosine. Reprobing with anti-MAP kinase and anti-pan-Trk antibodies was carried out to ensure equal protein loading. To assess the activity of Akt, endogenous Akt can be immunoprecipitated from lysates with anti-Akt and the proteins assayed in Western blots with anti-phospho-Akt antibodies. Use of the anti-Akt antibody versus the anti-phospho-Akt antibody on lysates can give a comparative assessment of the relative level of the enzyme and extent of activation (Kim et al., 2001). […] and Immunoblotting. PC12 cells or PC12-615 cells (Hempstead et al, 1992), were maintained in Dulbecco's Modified Eagle's Medium (DMEM) containing 10% fetal bovine serum (FBS) supplemented with 100 units/ml penicillin, 100 μg/ml streptomycin, and 2 mM glutamine plus 200 μg/ml G418. Cells were placed in low serum medium (1% FBS, 0.5% horse serum) overnight prior to experiments. Cell lysates from PC12, 615 cells, or hippocampal cells were incubated in lysis buffer (1% NP40) for 4 hours to overnight at 4° C. with anti-pan-Trk polyclonal antibody, followed by incubation with protein A-Sepharose beads. Equivalent amounts of protein were analyzed for each condition. The beads' were washed five times with lysis buffer and the immune complexes were boiled in SDS-sample buffer and loaded on sodium dodecyl sulfate-polyacrylamide electrophoresis (SDS-PAGE) gels for immunoblot analysis. The immunoreactive protein bands were detected by ECL reagents based upon enhanced chemiluminescence procedure (Amersham Pharmacia).

TrkA receptors = assay: TrkA receptor tyrosine phosphorylation in PC12 (615) cells (anti-pan-Trk immunoprecipitation, PY99 anti-phosphotyrosine immunoblot); type: cell-based; details: PC12 (615) cells
Description: Stably transfected PC12 cells expressing high levels of TrkA (615) were treated with the indicated compounds for 2 hours. The cells were subsequently harvested in lysis buffer as described in the Materials and Methods of Example 1. Lysates were immunoprecipitated with anti-pan Trk rabbit antiserum. Immunocomplexes were analyzed by immunoblotting with anti-phosphotyrosine antibody (PY99).
In FIG. 2A, different concentrations of adenosine were administered to PC12615 cells for 2 hours or NGF (1 ng/ ml) for 10 min. Cells were also treated with CGS21680 at the indicated dose for 2 hours. In FIG. 2B, PC12 cells (615) were treated with adenosine (10 μM) for various times or with 5 ng/ml NGF for 10 min. Phosphorylated TrkA receptors were detected by immunoblot analysis using PY99 anti-phosphotyrosine antibodies. The amount of Trk receptors in each condition was verified by immunoblotting.
In FIG. 3A, PC12 cells (615) were treated with the A2A agonist CGS 21680 (10 nM) and an A1 agonist CPA (10 nM) for 2 hr. ZM 241385 (10 nM), an A2A antagonist, was incubated with the cells for 15 min prior to treatment with adenosine (10 μM) for 2 hours. In FIG. 3B, PC12 cells (615) were incubated with the indicated concentrations of PP1, a Src family kinase inhibitor (Hanke et al, 1996), for 30 min, and then treated with adenosine (10 μM) for 2 hours. Activation of TrkA was assessed by immunoprecipitation and immunoblot analysis using PY99 anti-phosphotyrosine antibody.
In FIG. 7A, different concentrations of PACAP27 were administered to PC12 (615) cells for 2 hours or NGF (5 ng/ml) for 10 min. […] Phosphorylated TrkA receptors were detected by immunoblot analysis using PY99 anti-phosphotyrosine antibodies. The level of Trk receptors for each condition was verified by immunoblotting with anti-Trk antibodies.
Immunoprotection and Immunoblotting. PC12 cells or PC12-615 cells (Hempstead et al, 1992), were maintained in Dulbecco's Modified Eagle's Medium (DMEM) containing 10% fetal bovine serum (FBS) supplemented with 100 units/ml penicillin, 100 μg/ml streptomycin, and 2 mM glutamine plus 200 μg/ml G418. Cells were placed in low serum medium (1% FBS, 0.5% horse serum) overnight prior to experiments. Cell lysates from PC12, 615 cells, or hippocampal cells were incubated in lysis buffer (1% NP40) for 4 hours to overnight at 4° C. with anti-pan-Trk polyclonal antibody, followed by incubation with protein A-Sepharose beads. Equivalent amounts of protein were analyzed for each condition. The beads' were washed five times with lysis buffer and the immune complexes were boiled in SDS-sample buffer and loaded on sodium dodecyl sulfate-polyacrylamide electrophoresis (SDS-PAGE) gels for immunoblot analysis. The immunoreactive protein bands were detected by ECL reagents based upon enhanced chemiluminescence procedure (Amersham Pharmacia).
Immunoprecipitated and Immunoblotting. PC12 (615) cells were maintained in DMEM containing 10% FBS supplemented with 100 units/ml penicillin, 100 μg/ml streptomycin, and 2 mM glutamine plus 200 μg/ml G418. Cells were placed in serum free medium overnight before experiments. Cell lysates from PC12(615) cells, or basal forebrain cells were incubated in lysis buffer (1% Nonidet P-40) for 4 hrs to overnight at 4° C. with anti-pan-Trk polyclonal antibody followed by incubation with protein A-Sepharose beads. Equivalent amounts of protein were analyzed for each condition.

TrkA [2] = target: T1, TrkA; assay: 125I-NGF equilibrium binding, PC12 cells stably overexpressing TrkA; design: expressed in transfected cells; details: for Displacement of 125I-NGF binding: PC12 cells overexpressing TrkA, adenosine 1 mM, CGS 21680 1 μM; for Specific Binding of 125I-NGF: 30 minutes at 25° C., control 14316 +/− 350
Description: as §1
Target sequence in this assay (P04629 33-796): as the sequence (P04629 33-796, species assumed) above

Specific Binding of 125I-NGF (TrkA [2]; Pc12, 1 mM) | SMILES | Specific Binding of 125I-NGF (TrkA [1]) | Displacement of 125I-NGF binding (TrkA [1]) | Activation of Akt (phospho-specific antibody) (Akt) | Activation of TrkA receptor activity (TrkA receptors; 1 nM, 2 hours) | Displacement of 125I-NGF binding (TrkA [2]) | Specific Binding of 125I-NGF (TrkA [2]; Pc12, 1 μM) | Concentration range of the effect upon TrkA receptor activity (TrkA receptors; 2 hours) | Time required for increase in TrkA activation (TrkA receptors; adenosine 10 μM) | Activation of TrkA receptors (tyrosine phosphorylation) (TrkA receptors; ligand for 2 hours, adenosine 10 μM)
– | CCNC(=O)[C@H]1O[C@@H](n2cnc3c(N)nc(NCCc4ccc(CCC(=O)O)cc4)nc32)[C@H](O)[C@@H]1O [CGS 21680, 2-[(4-(2-carboxyethyl)phenylethyl)]aminoadenosine-5′-N-ethylcarboxamide] | 39568 +/− 2032 | did not displace | able to activate Akt | verified | no displacement | 14237 +/− 1055 | – | – | –
14403 +/− 888 | Nc1ncnc2c1ncn2[C@@H]1O[C@H](CO)[C@@H](O)[C@H]1O [adenosine] | 36618 +/− 4185 | did not displace | able to activate Akt | – | no displacement | – | low nanomolar range; also recorded: low concentration range | at least 90 minutes | Activated TrkA receptors were observed
